Two molecules from PMC6120666 (The EMBO Journal, 2018) can be followed below.

One experiment has as its system U2OS/NOD2 cells. The experiment is described as follows: Intracellular flow cytometry of CXCL8 after L18-MDP. It is filed as cell-based, human. The settings on record: U2OS/NOD2 RIPK2 KO cells reconstituted with T95W gatekeeper mutant; L18-MDP 200 ng/ml, 4 h. Here is the method: Purified material and lysates were analyzed by immunoblotting. […] Numbering below schematic refers to amino acid residues in human RIPK2 and indicate domain boundaries. […] Data information: Data in (A, B, D, H) represent the mean ± SEM of 2–4 independent experiments, each performed in duplicate. […] Two‐way ANOVA was used to determine statistical significance. See also Fig EV1.Source data are available online for this figure.
Dark gray represents areas occupied by RIPK2; white areas indicate empty spaces in CSLP binding pocket. […] Dotted black box indicates region shown for models with CSLP37 and CSLP43. • Molecular docking model of RIPK2 kinase domain in complex with CSLP43 (green) based on RIPK2/CSLP18 structure from (D). […] Two‐way ANOVA was used to determine statistical significance. See also Fig EV2.
(§1) GST-BIR2-XIAP as indicated. Intensity quantification of SPOTs was performed using ImageJ software
(§2) Dual luciferase reporter assay
(§3) Intracellular flow cytometry of CXCL8
(§4) for cell death) or vehicle for 24h. Viability was determined using the CellTiter-Glo® luminescent cell
(§5) together with Transfection Carrier DNA (Promega).
(§6) After addition of Nano-Glo
For orientation: A flow cytometer gives signals particle by particle.

The target in experiment [1] is T1, XIAP BIR2 - RIPK2 interaction (Homo sapiens, UniProt O43353).
T1 construct: U2OS/NOD2 cells were lysed in TBS lysis buffer; endogenous in cells; host or cells: U2OS/NOD2 cell lysate (RIPK2); E. coli BL21 (GST-BIR2-XIAP)
The experiment is described as follows: GST-BIR2-XIAP pulldown of RIPK2. The format is binding. The settings on record: U2OS/NOD2 lysates; inhibitors at 100-fold IC50 of RIPK2 kinase activity. Here is the method:
(§7) For co‐immunoprecipitation of HA‐XIAP with RIPK2, transfected and treated cells were lysed in TBS buffer containing 0.5% NP‐40, cOmplete and PhosSTOP inhibitors (Roche) and the lysate was cleared by centrifugation. The lysates were incubated with anti‐HA‐agarose overnight, washed 3× with lysis buffer, and analyzed by immunoblotting. For GST pulldown experiments, U2OS/NOD2 cells were lysed in TBS lysis buffer containing 0.5% NP‐40, cOmplete and PhosSTOP inhibitors (Roche). Cleared lysates were pretreated with kinase inhibitors or DMSO and incubated with GST‐XIAP‐BIR2 bound to Glutathione Sepharose at 4°C overnight. Bound material was washed 3× with lysis buffer or PBS, eluted with 15 mM Glutathione in PBS, and analyzed by immunoblotting. […] The bound material was eluted and analyzed as described above.
For coimmunoprecipitation of HA-XIAP with RIPK2, transfected and treated cells were lysed in TBS buffer containing 0.5% NP-40, cOmplete and PhosSTOP inhibitors (Roche) and the lysate was cleared by centrifugation. The lysates were incubated with anti-HA-agarose overnight, washed 3x with lysis buffer and analyzed by immunoblotting. For GST pull-down experiments, U2OS/NOD2 were lysed in TBS lysis buffer containing 0.5% NP-40, cOmplete and PhosSTOP inhibitors (Roche).
Cleared lysates were pretreated with kinase inhibitors or DMSO and incubated with GST-XIAP-BIR2 bound to Glutathione Sepharose at 4 °C overnight. Bound material was washed 3x with lysis buffer or PBS, eluted with 15 mM Glutathione in PBS and analyzed by immunoblotting. In pull-down […]
inhibitors or DMSO control in PBS were added together with RIPK2 kinase domain to GST-XIAP-BIR2 bound to Glutathione Sepharose. The bound material was eluted and analyzed as described above. […]

Experiment [2] concerns RIPK2 ubiquitination in U2OS/NOD2 and THP-1 cells. Put plainly: Purification of Ub-conjugates (TUBE pulldown), RIPK2 ubiquitination. It is filed as cell-based, human. The procedure:
as §7, with “above. […]” for “above.”
PBS, eluted with 15 mM Glutathione in PBS and analyzed by immunoblotting. […]

Experiment [3] has as its target T2, NanoLuc-RIPK2 WT and T95W (Homo sapiens, UniProt O43353, T95W).
T2 construct: expressed in transfected cells; host or cells: HEK293 cells
Put plainly: nanoBRET assay in HEK293 cells with SGC-590001 probe. The format is binding. The settings on record: up to more than 100 nM. The procedure:
Purified material and lysates were analyzed by immunoblotting. […] Two‐way ANOVA was used to determine statistical significance.
as §1, §2, §3, §4, §5, §6
Background: In BRET a luciferase serves as donor, and the signal depends on an acceptor being close.

The target in experiment [4] is T3, XIAP-RIPK2 interaction in HEK293FT cells (Homo sapiens, UniProt O43353).
T3 construct: endogenous RIPK2 from HEK293FT cells; endogenous in cells; host or cells: HEK293FT cells (RIPK2 endogenous; 3xHA-XIAP-F495A transfected)
The experiment is described as follows: Co-immunoprecipitation of HA-XIAP with endogenous RIPK2. The settings on record: 200 nM. The format is cell-based. The procedure:
Purified material and lysates were analyzed by immunoblotting. • Pulldown of RIPK2 from U2OS/NOD2 cell lysates with recombinant GST‐BIR2‐XIAP in the presence of CSLP inhibitors. […] Purified material and lysates were analyzed by immunoblotting. • Pulldown of recombinant RIPK2 kinase domain (dephosphorylated) with recombinant GST‐BIR2‐XIAP in the presence of CSLP inhibitors as indicated. Inhibitors were used at the same concentrations as in (C). Purified material and lysates were analyzed by immunoblotting. • Purification of Ub‐conjugates from THP‐1 cells after treatment with L18‐MDP (200 ng/ml, 1 h) and CSLP inhibitors as indicated. Purified material and lysates were analyzed by immunoblotting. […]
For co‐immunoprecipitation of HA‐XIAP with RIPK2, transfected and treated cells were lysed in TBS buffer containing 0.5% NP‐40, cOmplete and PhosSTOP inhibitors (Roche) and the lysate was cleared by centrifugation. The lysates were incubated with anti‐HA‐agarose overnight, washed 3× with lysis buffer, and analyzed by immunoblotting. […] Bound material was washed 3× with lysis buffer or PBS, eluted with 15 mM Glutathione in PBS, and analyzed by immunoblotting. […] The bound material was eluted and analyzed as described above. […]
(§8) Ubiquitin conjugates were purified from treated cells using GST-1xUBAubq ubiquitin affinity reagent and analyzed by immunoblotting as described (Fiil et al., 2013). […]

Experiment [5] concerns the target T4, GST-BIR2-XIAP (Homo sapiens, UniProt P98170).
T4 construct: XIAP BIR2 domain (aa 124-242) into pGTVL2 vector in frame with N-terminal HIS and GST tags; made in house; host or cells: E. coli (BL21)
Put plainly: SPOT peptide assay. It is filed as binding. To be noted: GST-tagged WT BIR2. Here is the method: (§9) Cellulose‐bound peptide arrays were prepared employing standard Fmoc solid‐phase peptide synthesis using a MultiPep‐RSi‐Spotter (INTAVIS, Köln, Germany) as previously described (Picaud & Filippakopoulos, 2015). The assay was performed using recombinant 6xHIS‐GST‐BIR2 domain of XIAP protein, and bound protein was detected using anti‐His antibody HRP‐conjugated.
(§10) For coimmunoprecipitation of HA-XIAP with RIPK2, transfected and treated cells were lysed in TBS buffer containing 0.5% NP-40, cOmplete and PhosSTOP inhibitors (Roche) and the lysate was cleared by centrifugation. The lysates were incubated with anti-HA-agarose overnight, washed 3x with lysis buffer and analyzed by immunoblotting. […]
(§11) Cleared lysates were pretreated with kinase inhibitors or DMSO and incubated with GST-XIAP-BIR2 bound to Glutathione Sepharose at 4 °C overnight. Bound material was washed 3x with lysis buffer or PBS, eluted with 15 mM Glutathione in PBS and analyzed by immunoblotting. […] The bound material was eluted and analyzed as described above.
as §8
(§12) Proteins bound to peptides were detected using anti-His antibody HPR conjugated (diluted 1:15000) and the Pierce® ECL Western blotting Substrate (#32106, Thermo Fisher Scientific). […]

Experiment [6] has as its target T5, GST-BIR2-XIAP (Homo sapiens, UniProt P98170, D214S).
T5 construct: XIAP BIR2 domain (aa 124-242) into pGTVL2 vector in frame with N-terminal HIS and GST tags; made in house; host or cells: E. coli (BL21)
Put plainly: SPOT peptide assay. It is filed as binding. To be noted: D214S mutant BIR2. Here is the method: as §9, §10, §11, §8, §12

In the case of `Cc1ccc(C(=O)Nc2ccc(CN3CCN(C)CC3)c(C(F)(F)F)c2)cc1C#Cc1cnc2cccnn12` [ponatinib, reference compound], the “inhibition of NOD2 signaling (CXCL8) in cells expressing RIPK2 T95W” value in the experiment with U2OS/NOD2 cells is recorded as “largely abolished the inhibitory effect”. For the same molecule, the “pulldown of RIPK2 by GST-BIR2-XIAP from cell lysates” value in experiment [1] is on record as “interfered”. In experiment [2] (U2OS/NOD2 RIPK2 KO cells reconstituted with K47R or D146N), the “ubiquitination of kinase-dead RIPK2 variants after NOD2 stimulation” value was “prevented ubiquitination”. The “RIPK2 ubiquitination after L18-MDP” value in experiment [2] (U2OS/NOD2 or THP-1 cells, L18-MDP 200 ng/ml, 1 h) is recorded as “antagonized”. Further, in experiment [3], the “binding to RIPK2 T95W in cells” value is recorded as “ablated the binding”. For the same molecule, the “co-immunoprecipitation of endogenous RIPK2 with HA-XIAP” value in experiment [4] was “prevented”.

With “A-S-G-T-V-S-S-A-R-H-A-D-W-R-V (ASGTVSSARHADWRV) [A13, RIPK2 15-mer SPOT peptide, residues 28-42]”, in the experiment with GST-BIR2-XIAP [5], the “binding of WT XIAP BIR2 domain to peptide” value is reported as “binds predominantly”. Besides, the “binding of D214S versus WT BIR2 domain to peptide” value with GST-BIR2-XIAP [6] is on record as “reduced”.
